Experimental data: PubChem BioAssay (NCI)
Values joined by “and” are separate entries in the source; they are usually repeats but may differ in a detail not shown here. Equal values may be shown once.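 Protocol summary: plate cells (96-well), add compound at 5 concentrations, incubate 48 h, interpolate endpoints linearly. GI50 marks 50% less growth. TGI is the concentration that stops growth completely.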

Each compound was assayed on CAKI-1 renal (assay: NCI-60 cell line screen, 48 h).

SMILES | GI50 | TGI [µM]
O=C(CCCSc1nc(-c2ccccc2)cc(-c2ccccc2)n1)NO | 516 nM | 6.46
CC1SC(c2ccc(F)cc2)N(NC(=O)C(O)c2ccccc2)C1=O (stereo unspecified) | > 100000 nM | > 100
COCCOc1ccc(-c2nc3ccc(-c4nc5ccc(N6CCN(C)CC6)cc5[nH]4)cc3[nH]2)cc1 | 2250 nM | > 100
Nc1n[nH]c2cccc(C#Cc3cccc(C(=O)Nc4ccc(CN5CCOCC5)c(C(F)(F)F)c4)c3)c12 | 3200 nM | 11.4
CCC(=C/[C@H](C)C/C=C/C(C)=C/[C@@H](C)C(=O)[C@@H](C)[C@H](O)[C@@H](C)CC)/C=C/[C@H]1OC(=O)C=C[C@@H]1C | < 10 nM | 0.327
Nc1ccccc1SC(CC(=O)c1ccccc1)c1cccc([N+](=O)[O-])c1 (stereo unspecified) | 16400 nM | 30.4
CN1CC[C@@H](NC(=O)Nc2ccc(C#N)cc2)C[C@@H]1c1nc2ccccc2[nH]1 | > 100000 nM | > 100
COc1ccc2nc(NC(=O)CSc3nnc4n3S(=O)(=O)c3ccccc3N4c3ccccc3)sc2c1 | > 100000 nM | > 100
O=C1NC(=NC(CO)Cc2ccccc2)S/C1=C\c1ccc2ncccc2c1 (stereo unspecified) | 9350 nM and 3640 nM | > 25
Cc1nnc(NC(=O)c2nc(S(=O)(=O)Cc3ccc(F)cc3)ncc2Cl)s1 | 1780 nM | 3.24
CC(C)[C@@H]1C=C2CC[C@H]3[C@](C)(CN)CCC[C@]3(C)[C@H]2CC1 | 1850 nM | 4.66
O=CNc1ccc2c(c1)C(=O)c1ccccc1-2 | – | > 100
O=C(Nc1ccc(Oc2ccc(Nc3nc4ccccc4s3)cc2)cc1)Nc1ccc(Cl)c(C(F)(F)F)c1 | 2050 nM | 7.98
Nc1c(C(=O)Nc2cccc(C(F)(F)F)c2)sc2nc3c(cc12)CCCCC3 | 2080 nM | 10.1
Nc1ccc(C2=NNC(=O)Cc3cc4c(cc32)OCCO4)cc1Cl | 1990 nM | > 50
COc1ccc2nc3cc(Cl)ccc3c(NCCNCC(C)O)c2c1 (stereo unspecified) | 1570 nM | 4.54
CCn1c(-c2nonc2N)nc2c(C#CC(C)(C)O)nc(OC[C@@H](N)c3ccccc3)cc21 | 6530 nM | 14.1
Cn1ccc2c3c(Oc4ccc(NC(N)=O)cc4)ccnc3ccc21 | > 100000 nM | > 100
Nc1n[nH]c2cc(F)c([C@@H]3Nc4ccc5[nH]ncc5c4[C@H]4C5CCC(C5)[C@@H]34)cc12 (stereo partly specified) | 132 nM | 7.43
COc1ccc(CCN=C2NC(=O)/C(=C/c3ccc4ncccc4c3)S2)cc1 | > 21200 nM | > 25
COC[C@H]1Cn2cc(-c3nc(Nc4ccnn4C)ncc3C)nc2C(=O)N1Cc1ccc(F)c(F)c1 | 795 nM | > 100

Each compound was assayed on HCT-116 colon (assay: NCI-60 cell line screen, 48 h).

SMILES | GI50 [nM] | TGI [µM]
O=C(CCCSc1nc(-c2ccccc2)cc(-c2ccccc2)n1)NO | 657 | 11.7
CC1SC(c2ccc(F)cc2)N(NC(=O)C(O)c2ccccc2)C1=O (stereo unspecified) | > 100000 | > 100
COCCOc1ccc(-c2nc3ccc(-c4nc5ccc(N6CCN(C)CC6)cc5[nH]4)cc3[nH]2)cc1 | 358 | 2.46
Nc1n[nH]c2cccc(C#Cc3cccc(C(=O)Nc4ccc(CN5CCOCC5)c(C(F)(F)F)c4)c3)c12 | 1530 | 5.2
CCC(=C/[C@H](C)C/C=C/C(C)=C/[C@@H](C)C(=O)[C@@H](C)[C@H](O)[C@@H](C)CC)/C=C/[C@H]1OC(=O)C=C[C@@H]1C | < 10 | 0.0106
